Laboratory results reported in patent publication US20170035724A1, “MAMMALIAN SIRT1 ACTIVATOR” (priority 2015, published 2017).

Tests used:
mammalian SIRT1 [1] = test: p53 deacetylation in A549 cells treated with corylin and nicotinamide, Western blotting; format: cell-based, human; details: nicotinamide 1 hour before corylin, then UV, FIG. 6
Description: Nicotinamide is a mammalian SIRT1 inhibitor (Exp Hematol. 2012; 40(4): 342-55), and the compound is used to confirm the foregoing result. After human lung cancer A549 cells were cultured at 37° C. overnight, the cells were treated with a media containing nicotinamide, and then cultured at 37° C. for 1 hour. Corylin in various concentrations was added to the media, and the cells were cultured at 37° C. for 4 hours. After which, the cells were emitted with UV to acetylate p53, and cultured at 37° C. for 4 hours again. Finally, the total protein in the cells were extracted and analyzed using Western blotting.

wild type yeast cells = test: Replicative life span of wild type yeast cells (passage number); format: cell-based
Description: (§1) A yeast colony was selected and cultured in a YEPD culture media. When the OD value of the media was at 0.6-0.8, 20 μl of the media was added to a YEPD solid media, and then 20-30 yeast cells were selected using a tetrad dissection microscope manipulation system. The selected yeast cells were cultured at 30° C. for 3-5 hours to divide into first generation yeast cells. Afterwards, the first generation yeast cells were cultured at 30° C. for 3-5 hours to divide into second generation yeast cells. The culturing step was repeated until final generation yeast cells which cannot divide anymore existed. Finally, the yeast cells' passage number was counted according to the total division number.

mammalian SIRT1 [2] = test: Mammalian SIRT1 expression in human osteosarcoma U2OS cells, Western blotting; format: cell-based; details: increases with culturing period, FIG. 5A
Description: Human osteosarcoma U2OS cells were seeded and cultured at 37° C. overnight, and then the cells were treated with corylin and cultured at 37° C. again. After various culturing periods, total protein in the treated cells was extracted and analyzed using Western blotting.

PNC1 [3] = test: PNC1 translation (Pnc1 protein) in corylin-treated yeast cells, Western blotting; format: cell-based; details: 50 μM corylin for 10 hours; compared with calorie restriction for 10 hours as positive control; FIG. 4C
Description: To confirm the foregoing result, after yeast cells were treated with corylin in various concentrations for various periods, total protein therein was extracted and analyzed using Western blotting.

p53 [4] = test: UV-induced p53 acetylation in human osteosarcoma U2OS cells, Western blotting; format: cell-based; details: corylin in various concentrations, 4 hours before UV, FIG. 5C
Description: (§2) After human lung cancer A549 cells or human osteosarcoma U2OS cells were cultured at 37° C. overnight, the cells were treated with various substances, and then cultured at 37° C. for 4 hours. After that, the cells were emitted with UV to acetylate p53, and cultured at 37° C. for 4 hours again. Finally, total protein extracted from the cells was analyzed using Western blotting.

PNC1 [5] = test: PNC1 transcription in corylin-treated yeast cells (PCR and real-time PCR); format: cell-based; details: various treatment periods; increases with treatment period; FIGS. 4A and 4B
Description: After yeast cells were treated with corylin for various periods, total RNA in the treated yeast cells was extracted. Then, the cDNA corresponding to the extracted RNA was formed using reverse transcription. Finally, the cDNA was analyzed using polymerase chain reaction and real-time polymerase chain reaction.

p53 [6] = test: UV-induced p53 acetylation in human lung cancer A549 cells, Western blotting; format: cell-based; details: corylin in various concentrations, 4 hours before UV, FIG. 5B
Description: as §2

sir2-mutant yeast cells = test: Replicative life span of sir2-mutant yeast cells (passage number); format: cell-based; details: sir2-mutant yeast cells treated with corylin; untreated 9.8; FIG. 2
Description: as §1

Compound | effect on p53 deacetylation caused by corylin (mammalian SIRT1 [1]) | effective concentration on replicative life span of a yeast cell (wild type yeast cells; FIG. 3) | preferable effective concentration on replicative life span of a yeast cell (wild type yeast cells; FIG. 3, 'preferably') | passage number (replicative life span) (wild type yeast cells; wild type yeast cells treated with corylin, untreated 26.9, FIG. 2) | mammalian SIRT1 expression (mammalian SIRT1 [2]) | Pnc1 expression (PNC1 translation) (PNC1 [3]) | acetylation of p53 induced by UV (p53 [4]) | PNC1 transcription (PNC1 [5]) | acetylation of p53 induced by UV (p53 [6]) | passage number (replicative life span) (sir2-mutant yeast cells)
NC(=O)c1cccnc1 [nicotinamide, Nicotinamide] | can inhibit the p53 deacetylation caused by corylin |  |  |  |  |  |  |  |  | 
corylin |  | 2 to 100 µM | 2 to 15 µM | 33.2 | can promote the expression of mammalian SIRT1 | can obviously express Pnc1 | can repress the acetylation of p53 induced by UV | can promote the transcription of PNC1 | can repress the acetylation of p53 induced by UV | 10.6
